Data from ChEMBL document CHEMBL1145498, “A systematic interaction map of validated kinase inhibitors with Ser/Thr kinases” (Proc Natl Acad Sci U S A, 2007).

Columns and labels:
[1] = biological target: Serine/threonine-protein kinase RIO2 (Homo sapiens) (UniProt Q9BVS4)
[2] = biological target: Serine/threonine-protein kinase PAK 4 (Homo sapiens) (UniProt O96013)
[3] = biological target: T1, Calcium/calmodulin-dependent protein kinase type IV (Homo sapiens) (UniProt Q16566)
T1 sequence (whole entry): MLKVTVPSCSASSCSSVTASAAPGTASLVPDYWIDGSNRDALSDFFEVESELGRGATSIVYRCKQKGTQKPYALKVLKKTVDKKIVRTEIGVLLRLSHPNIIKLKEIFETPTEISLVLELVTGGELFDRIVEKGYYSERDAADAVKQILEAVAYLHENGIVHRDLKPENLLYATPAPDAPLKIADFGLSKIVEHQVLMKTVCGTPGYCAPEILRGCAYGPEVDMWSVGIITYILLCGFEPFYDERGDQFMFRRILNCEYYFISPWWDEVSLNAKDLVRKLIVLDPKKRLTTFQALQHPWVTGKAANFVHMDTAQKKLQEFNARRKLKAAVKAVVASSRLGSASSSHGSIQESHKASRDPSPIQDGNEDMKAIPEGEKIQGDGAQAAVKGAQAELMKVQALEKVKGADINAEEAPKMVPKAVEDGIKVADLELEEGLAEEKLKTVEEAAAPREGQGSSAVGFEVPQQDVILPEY

[4] = biological target: T2, Serine/threonine-protein kinase 17A (Homo sapiens) (UniProt Q9UEE5)
T2 sequence (whole entry): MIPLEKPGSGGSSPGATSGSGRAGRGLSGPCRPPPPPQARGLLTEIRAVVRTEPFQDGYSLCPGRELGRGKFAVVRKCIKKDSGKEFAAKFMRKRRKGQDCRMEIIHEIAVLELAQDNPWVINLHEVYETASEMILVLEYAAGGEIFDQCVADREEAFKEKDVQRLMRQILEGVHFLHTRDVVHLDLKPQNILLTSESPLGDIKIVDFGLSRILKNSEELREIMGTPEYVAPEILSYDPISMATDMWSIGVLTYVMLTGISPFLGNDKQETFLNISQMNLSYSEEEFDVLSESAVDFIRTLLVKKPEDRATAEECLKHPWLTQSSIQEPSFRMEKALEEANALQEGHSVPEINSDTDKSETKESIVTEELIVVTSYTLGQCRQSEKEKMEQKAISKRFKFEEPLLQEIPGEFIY

[5] = biological target: Serine/threonine-protein kinase 16 (Homo sapiens) (UniProt O75716)
[6] = biological target: 5'-AMP-activated protein kinase catalytic subunit alpha-2 (Homo sapiens) (UniProt P54646)
[7] = biological target: T3, Dual specificity mitogen-activated protein kinase kinase 6 (Homo sapiens) (UniProt P52564)
T3 sequence (whole entry): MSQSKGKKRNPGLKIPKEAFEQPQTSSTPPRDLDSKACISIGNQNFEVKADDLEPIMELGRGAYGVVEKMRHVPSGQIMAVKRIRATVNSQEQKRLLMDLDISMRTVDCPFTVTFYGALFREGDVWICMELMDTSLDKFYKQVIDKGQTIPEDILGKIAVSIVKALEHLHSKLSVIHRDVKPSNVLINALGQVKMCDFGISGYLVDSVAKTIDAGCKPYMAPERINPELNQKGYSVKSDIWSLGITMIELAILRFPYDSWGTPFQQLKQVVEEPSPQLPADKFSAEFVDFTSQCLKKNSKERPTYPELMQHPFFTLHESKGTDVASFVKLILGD

[8] = biological target: Calcium/calmodulin-dependent protein kinase type II subunit beta (Homo sapiens) (UniProt Q13554)
[9] = biological target: T4, 3-phosphoinositide-dependent protein kinase 1 (Homo sapiens) (UniProt O15530)
T4 sequence (whole entry): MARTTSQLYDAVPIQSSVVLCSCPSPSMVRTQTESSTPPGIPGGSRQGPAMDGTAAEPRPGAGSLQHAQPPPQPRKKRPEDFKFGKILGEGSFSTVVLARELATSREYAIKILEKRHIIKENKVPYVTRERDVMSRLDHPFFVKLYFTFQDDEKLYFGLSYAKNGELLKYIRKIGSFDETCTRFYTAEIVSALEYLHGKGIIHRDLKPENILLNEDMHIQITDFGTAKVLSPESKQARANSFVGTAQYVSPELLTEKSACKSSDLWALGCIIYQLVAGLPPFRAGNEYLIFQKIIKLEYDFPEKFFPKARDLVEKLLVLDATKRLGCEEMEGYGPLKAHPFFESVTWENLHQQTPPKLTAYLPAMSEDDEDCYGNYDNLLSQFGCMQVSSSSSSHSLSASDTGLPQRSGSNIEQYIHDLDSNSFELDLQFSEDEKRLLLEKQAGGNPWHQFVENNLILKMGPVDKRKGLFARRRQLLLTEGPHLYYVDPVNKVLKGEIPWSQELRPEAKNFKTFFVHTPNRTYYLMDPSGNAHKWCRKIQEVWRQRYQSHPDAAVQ

[10] = biological target: Mitogen-activated protein kinase 6 (Homo sapiens) (UniProt Q16659)
[11] = biological target: Serine/threonine-protein kinase PAK 5 (Homo sapiens) (UniProt Q9P286)
[12] = biological target: Serine/threonine-protein kinase 38 (Homo sapiens) (UniProt Q15208)
[13] = biological target: Ribosomal protein S6 kinase alpha-3 (Homo sapiens) (UniProt P51812)
[14] = biological target: Cyclin-dependent kinase 16 (Homo sapiens) (UniProt Q00536)
[15] = biological target: Casein kinase I isoform gamma-3 (Homo sapiens) (UniProt Q9Y6M4)
Chain of Casein kinase I isoform gamma-3 (Homo sapiens) (Q9Y6M4 whole entry, looked up, canonical isoform): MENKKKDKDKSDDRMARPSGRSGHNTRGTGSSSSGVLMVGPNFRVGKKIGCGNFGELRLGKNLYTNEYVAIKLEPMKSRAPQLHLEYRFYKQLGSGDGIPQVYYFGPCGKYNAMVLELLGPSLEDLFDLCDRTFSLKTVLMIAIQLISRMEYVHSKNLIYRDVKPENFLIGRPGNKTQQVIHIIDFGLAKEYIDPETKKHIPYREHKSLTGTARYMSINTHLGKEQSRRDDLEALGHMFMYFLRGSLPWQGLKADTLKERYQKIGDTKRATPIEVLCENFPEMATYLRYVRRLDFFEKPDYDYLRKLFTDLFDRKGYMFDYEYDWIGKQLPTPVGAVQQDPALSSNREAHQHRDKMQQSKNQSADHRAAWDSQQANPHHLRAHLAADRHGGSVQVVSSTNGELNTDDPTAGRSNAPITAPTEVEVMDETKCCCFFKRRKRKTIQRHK

Chain of Calcium/calmodulin-dependent protein kinase type II subunit beta (Homo sapiens) (Q13554 whole entry): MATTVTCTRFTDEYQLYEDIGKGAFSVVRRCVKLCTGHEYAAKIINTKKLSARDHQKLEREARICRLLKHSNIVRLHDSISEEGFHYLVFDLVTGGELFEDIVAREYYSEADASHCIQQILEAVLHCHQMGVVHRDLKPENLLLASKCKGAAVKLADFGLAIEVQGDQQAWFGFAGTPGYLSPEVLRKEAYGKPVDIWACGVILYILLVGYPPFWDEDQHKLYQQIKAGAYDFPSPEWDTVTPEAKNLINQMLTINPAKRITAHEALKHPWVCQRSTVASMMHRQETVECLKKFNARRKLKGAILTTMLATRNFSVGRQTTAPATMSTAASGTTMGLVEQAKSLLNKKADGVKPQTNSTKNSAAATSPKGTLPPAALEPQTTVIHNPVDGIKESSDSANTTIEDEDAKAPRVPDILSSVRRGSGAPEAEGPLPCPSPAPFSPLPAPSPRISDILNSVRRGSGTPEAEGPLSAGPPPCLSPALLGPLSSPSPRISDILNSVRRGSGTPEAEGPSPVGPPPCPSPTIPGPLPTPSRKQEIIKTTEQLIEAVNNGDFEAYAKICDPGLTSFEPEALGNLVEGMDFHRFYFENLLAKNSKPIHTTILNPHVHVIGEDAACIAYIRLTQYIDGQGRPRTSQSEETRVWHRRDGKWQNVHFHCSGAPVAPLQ
Chain of Ribosomal protein S6 kinase alpha-3 (Homo sapiens) (P51812 whole entry): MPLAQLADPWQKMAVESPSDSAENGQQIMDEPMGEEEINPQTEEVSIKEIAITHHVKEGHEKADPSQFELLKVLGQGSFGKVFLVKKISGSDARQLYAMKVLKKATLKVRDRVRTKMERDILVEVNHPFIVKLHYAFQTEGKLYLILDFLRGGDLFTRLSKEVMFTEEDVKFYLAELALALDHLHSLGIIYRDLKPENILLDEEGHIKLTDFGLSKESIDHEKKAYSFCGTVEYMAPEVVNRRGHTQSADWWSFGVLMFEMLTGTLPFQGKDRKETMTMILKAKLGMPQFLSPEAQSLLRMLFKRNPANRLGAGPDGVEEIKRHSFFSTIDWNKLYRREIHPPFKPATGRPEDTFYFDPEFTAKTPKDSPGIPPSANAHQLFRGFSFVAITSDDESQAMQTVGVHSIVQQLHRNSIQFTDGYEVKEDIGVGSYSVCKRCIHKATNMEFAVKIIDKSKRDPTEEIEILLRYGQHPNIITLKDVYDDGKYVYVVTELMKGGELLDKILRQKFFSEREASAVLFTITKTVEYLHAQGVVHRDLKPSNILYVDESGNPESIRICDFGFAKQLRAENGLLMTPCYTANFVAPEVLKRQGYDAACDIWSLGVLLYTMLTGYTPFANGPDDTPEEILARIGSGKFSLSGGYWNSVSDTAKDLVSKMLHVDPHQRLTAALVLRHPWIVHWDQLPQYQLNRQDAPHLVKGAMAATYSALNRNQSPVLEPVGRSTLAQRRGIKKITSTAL
Chain of Serine/threonine-protein kinase PAK 4 (Homo sapiens) (O96013 whole entry, looked up): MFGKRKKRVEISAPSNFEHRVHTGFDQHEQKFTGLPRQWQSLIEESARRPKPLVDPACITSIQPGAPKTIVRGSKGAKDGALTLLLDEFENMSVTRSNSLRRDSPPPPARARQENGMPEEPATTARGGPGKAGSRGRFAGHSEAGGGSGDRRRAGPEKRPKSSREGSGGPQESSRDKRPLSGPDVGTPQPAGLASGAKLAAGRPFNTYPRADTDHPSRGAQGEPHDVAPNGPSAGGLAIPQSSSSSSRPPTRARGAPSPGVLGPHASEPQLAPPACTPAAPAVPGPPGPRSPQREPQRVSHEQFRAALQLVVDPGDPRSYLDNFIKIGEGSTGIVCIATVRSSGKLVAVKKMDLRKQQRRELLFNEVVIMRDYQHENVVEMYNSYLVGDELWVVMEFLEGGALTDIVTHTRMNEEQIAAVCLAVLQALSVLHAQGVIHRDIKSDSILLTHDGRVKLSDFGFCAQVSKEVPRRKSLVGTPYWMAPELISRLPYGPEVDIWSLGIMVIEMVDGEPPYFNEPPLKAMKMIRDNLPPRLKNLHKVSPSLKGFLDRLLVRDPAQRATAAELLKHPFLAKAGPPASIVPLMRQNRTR
Chain of Serine/threonine-protein kinase 16 (Homo sapiens) (O75716 whole entry): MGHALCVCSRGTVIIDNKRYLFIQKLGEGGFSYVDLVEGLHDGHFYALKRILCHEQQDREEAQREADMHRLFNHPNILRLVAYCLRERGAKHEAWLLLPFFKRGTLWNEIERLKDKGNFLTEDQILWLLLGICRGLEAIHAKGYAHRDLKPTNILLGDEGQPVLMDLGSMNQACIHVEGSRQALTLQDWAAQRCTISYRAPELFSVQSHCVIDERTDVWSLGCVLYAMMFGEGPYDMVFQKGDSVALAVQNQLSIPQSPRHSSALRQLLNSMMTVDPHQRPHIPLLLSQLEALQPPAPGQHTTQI
Chain of Mitogen-activated protein kinase 6 (Homo sapiens) (Q16659 whole entry): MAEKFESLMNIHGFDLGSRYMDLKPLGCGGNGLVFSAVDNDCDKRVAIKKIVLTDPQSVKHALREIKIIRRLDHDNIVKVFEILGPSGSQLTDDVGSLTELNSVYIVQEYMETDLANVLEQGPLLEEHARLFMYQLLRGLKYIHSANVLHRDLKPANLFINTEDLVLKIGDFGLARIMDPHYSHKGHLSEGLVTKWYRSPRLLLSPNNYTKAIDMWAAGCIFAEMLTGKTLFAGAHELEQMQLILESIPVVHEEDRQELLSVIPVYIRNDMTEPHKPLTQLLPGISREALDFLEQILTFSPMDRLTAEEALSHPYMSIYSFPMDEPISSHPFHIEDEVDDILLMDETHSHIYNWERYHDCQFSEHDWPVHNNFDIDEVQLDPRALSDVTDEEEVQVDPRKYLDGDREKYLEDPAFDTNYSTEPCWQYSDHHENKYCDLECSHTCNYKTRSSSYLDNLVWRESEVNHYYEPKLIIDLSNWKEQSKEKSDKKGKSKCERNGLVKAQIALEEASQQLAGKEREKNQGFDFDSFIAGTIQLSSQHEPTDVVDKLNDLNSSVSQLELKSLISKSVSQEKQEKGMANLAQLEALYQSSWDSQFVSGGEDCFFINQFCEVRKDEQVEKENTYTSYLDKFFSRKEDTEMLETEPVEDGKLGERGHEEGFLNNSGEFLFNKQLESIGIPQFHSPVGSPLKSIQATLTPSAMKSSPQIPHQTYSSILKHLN
Chain of Serine/threonine-protein kinase 38 (Homo sapiens) (Q15208 2-465 limits assumed): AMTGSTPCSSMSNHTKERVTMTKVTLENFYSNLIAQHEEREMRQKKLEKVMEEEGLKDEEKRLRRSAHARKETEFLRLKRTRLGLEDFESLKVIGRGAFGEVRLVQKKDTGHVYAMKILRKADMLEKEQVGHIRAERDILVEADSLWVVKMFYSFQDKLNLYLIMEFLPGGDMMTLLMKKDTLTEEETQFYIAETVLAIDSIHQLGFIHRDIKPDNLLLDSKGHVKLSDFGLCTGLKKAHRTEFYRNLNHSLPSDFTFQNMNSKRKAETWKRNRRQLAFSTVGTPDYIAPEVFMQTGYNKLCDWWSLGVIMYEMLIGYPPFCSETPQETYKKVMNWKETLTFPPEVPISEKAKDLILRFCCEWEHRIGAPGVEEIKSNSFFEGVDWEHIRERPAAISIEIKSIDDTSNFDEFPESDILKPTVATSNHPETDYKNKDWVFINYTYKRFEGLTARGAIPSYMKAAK
Chain of 5'-AMP-activated protein kinase catalytic subunit alpha-2 (Homo sapiens) (P54646 whole entry, looked up): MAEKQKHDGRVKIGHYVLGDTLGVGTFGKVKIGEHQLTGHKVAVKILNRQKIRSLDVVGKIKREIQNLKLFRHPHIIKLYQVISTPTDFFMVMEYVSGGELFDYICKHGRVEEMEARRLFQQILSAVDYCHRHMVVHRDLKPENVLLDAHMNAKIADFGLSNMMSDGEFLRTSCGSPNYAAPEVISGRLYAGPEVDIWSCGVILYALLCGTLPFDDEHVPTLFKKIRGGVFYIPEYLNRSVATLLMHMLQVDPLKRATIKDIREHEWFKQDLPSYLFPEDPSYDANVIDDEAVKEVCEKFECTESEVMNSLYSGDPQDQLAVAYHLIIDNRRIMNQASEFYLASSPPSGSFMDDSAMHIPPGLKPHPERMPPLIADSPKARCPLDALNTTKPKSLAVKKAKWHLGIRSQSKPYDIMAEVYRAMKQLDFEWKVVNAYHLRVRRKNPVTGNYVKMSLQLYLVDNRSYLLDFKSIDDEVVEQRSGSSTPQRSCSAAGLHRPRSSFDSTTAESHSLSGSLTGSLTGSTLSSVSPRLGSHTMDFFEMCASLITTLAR
Chain of Cyclin-dependent kinase 16 (Homo sapiens) (Q00536 whole entry, canonical isoform): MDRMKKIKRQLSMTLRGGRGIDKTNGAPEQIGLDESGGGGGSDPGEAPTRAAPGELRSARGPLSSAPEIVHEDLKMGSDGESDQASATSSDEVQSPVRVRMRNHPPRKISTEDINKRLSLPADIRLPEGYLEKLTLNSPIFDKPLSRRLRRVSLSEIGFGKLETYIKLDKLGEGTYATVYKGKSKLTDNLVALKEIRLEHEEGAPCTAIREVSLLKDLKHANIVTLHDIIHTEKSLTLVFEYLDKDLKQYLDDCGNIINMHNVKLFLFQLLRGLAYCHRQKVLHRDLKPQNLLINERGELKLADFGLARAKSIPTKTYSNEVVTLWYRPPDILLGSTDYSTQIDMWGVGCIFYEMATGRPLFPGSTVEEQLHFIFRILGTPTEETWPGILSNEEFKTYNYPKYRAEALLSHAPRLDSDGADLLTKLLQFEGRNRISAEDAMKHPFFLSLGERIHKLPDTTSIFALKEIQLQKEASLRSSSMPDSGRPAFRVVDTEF

| SMILES | ΔTm [1] | ΔTm [2] | ΔTm [3] | ΔTm [4] | ΔTm [5] | ΔTm [6] | ΔTm [7] | ΔTm [8] | ΔTm [9] | ΔTm [10] | ΔTm [11] | ΔTm [12] | ΔTm [13] | ΔTm [14] | ΔTm [15] |
| --- | --- | --- | --- | --- | --- | --- | --- | --- | --- | --- | --- | --- | --- | --- | --- |
| COc1cc2ncnc(Nc3ccc(NC(=O)c4ccccc4)cc3)c2cc1OC [ANILINOQUINAZOLINE1] | 0.6 °C | 0 °C | 0.9 °C | 2.1 °C | 0.4 °C | 0.8 °C | 0.2 °C | 0.3 °C | 1.1 °C | -0.1 °C | -0.2 °C | 0.9 °C | 5.5 °C | -1.4 °C | 0.3 °C |
| CC(C)[C@H](CO)Nc1nc(Nc2cc(N)cc(Cl)c2)c2ncn(C(C)C)c2n1 [AMINOPURVALANOL] | 4.5 °C | -0.1 °C | 4.2 °C | 1.6 °C | 0.2 °C | 0.3 °C | 1.3 °C | 0.5 °C | 1.4 °C | 1.5 °C | 0.3 °C | 0.6 °C | -0.1 °C | 8.1 °C | 1.1 °C |
| Cc1ccc(NC2=CC(=O)c3sc(C)nc3C2=O)cc1 | 0.6 °C | -0.7 °C | 3.7 °C | -0.8 °C | -1.2 °C | 0 °C | -0.2 °C | -0.6 °C | -3.4 °C | -0.3 °C | 0.4 °C | -1 °C | -0.5 °C | -0.9 °C | -4.3 °C |
| CN(c1cccnc1)c1cc2c(Nc3ccc(F)c(Cl)c3)c(C#N)cnc2cn1 | 6.1 °C | 2.6 °C | -3.4 °C | 4.7 °C | 8.7 °C | 4.8 °C | 0.4 °C | 1.2 °C | 1.2 °C | 4.2 °C | 1 °C | 0.3 °C | 8.5 °C | 0.1 °C | 3.7 °C |
| CCCNC(=O)Nc1ccc(Oc2ncnc3cc(OC)c(OC)cc23)cc1Cl [KRN-633] | 0.2 °C | 0.5 °C | 0.9 °C | 2.7 °C | 0.2 °C | 2.1 °C | 0 °C | 0.8 °C | -0.1 °C | 1.2 °C | -0.2 °C | 1.6 °C | 5.8 °C | -0.1 °C | -3.7 °C |
| O=C(Nc1cccc(Nc2nccc(Nc3cccc(C(F)(F)F)c3)n2)c1)C1CC1 [ANILINOPYRIMIDINE1] | 3.7 °C | 1.5 °C | 0.7 °C | 1.5 °C | 2.3 °C | 1.5 °C | 0.2 °C | 1 °C | 1.6 °C | 1.8 °C | 2.6 °C | 0.4 °C | 4.8 °C | 3.2 °C | 2.2 °C |
| O=C(Nc1cccc(Nc2cc(Nc3cccc(C(F)(F)F)c3)ncn2)c1)C1CC1 | 3.4 °C | 0.9 °C | -0.4 °C | 1.5 °C | 3.4 °C | -3.7 °C | 2.1 °C | 2.9 °C | 1.7 °C | 2.1 °C | 1 °C | 1.5 °C | 5.6 °C | 3.9 °C | 0.2 °C |
| COc1ccc(Cl)cc1NC(=O)Nc1cc(C)nc2ccccc12 | 0.6 °C | -0.6 °C | 0.6 °C | -0.1 °C | 0.4 °C | -0.4 °C | -0.3 °C | 0.3 °C | 3 °C | 2.1 °C | 2.6 °C | 0.1 °C | 2.2 °C | 0.5 °C | 0.9 °C |
| NCCNc1ncc(C(N)=O)c(Nc2cccc(C(F)(F)F)c2)n1 | 4.7 °C | 6.1 °C | 0.9 °C | 3.2 °C | 1.9 °C | 0.3 °C | 1.6 °C | 0.4 °C | 5.5 °C | 3 °C | 5.2 °C | 2.5 °C | 3.3 °C | 0.1 °C | 5.9 °C |
| Cc1[nH]c(/C=C2\C(=O)Nc3ccc(S(=O)(=O)N(C)c4cccc(Cl)c4)cc32)c(C)c1C(=O)N1CCN(C)CC1 | 1.4 °C | 1.4 °C | -0.1 °C | 3.3 °C | 0.6 °C | 4 °C | 3 °C | 0.8 °C | -0.6 °C | 1.4 °C | 0.9 °C | 4.2 °C | 7.7 °C | -0.6 °C | 1.1 °C |
| COc1cc2c(cc1OC)-c1n[nH]c(Nc3cccc(F)c3)c1C2 | -0.2 °C | 0 °C | 0.5 °C | 1.3 °C | 0.4 °C | -0.3 °C | 0.3 °C | -0.3 °C | -0.2 °C | -0.3 °C | -0.1 °C | 2.4 °C | 2.2 °C | -0.3 °C | 0.8 °C |
| Cc1nc(N)sc1-c1ccnc(Nc2cccc([N+](=O)[O-])c2)n1 | 3.6 °C | 1.6 °C | 1.8 °C | 1.9 °C | 2.9 °C | 3 °C | 1.2 °C |  | 1.9 °C | 2.1 °C | 7.1 °C | 0.6 °C | 5.9 °C | 3.9 °C | 1.3 °C |
| CC(C)c1nn(-c2c(Cl)cccc2Cl)c2nc(Cc3ccc(OCCO)cc3)[nH]c(=O)c12 | 0.1 °C | 2.2 °C | -3.4 °C | 0.1 °C | 1.4 °C | 1 °C | 0.1 °C | 0.9 °C | 0 °C | 0 °C | 6.2 °C | 0.3 °C | -0.9 °C | -0.6 °C | 1.3 °C |
| CN1CCc2[nH]c(=S)c(C#N)c(-c3cccs3)c2C1 | 0.3 °C | -0.4 °C | 1.9 °C | 0.9 °C | 0.5 °C | 0.4 °C | -0.2 °C | -0.2 °C | 1.5 °C | 1.2 °C | 0.8 °C | 0.5 °C | 0.7 °C | 4.1 °C | 0.2 °C |
